Key:
[1] = tested on: human breast cancer ZR-75-1 cells; settings: low concentrations, in vitro; cited from earlier work
[2] = 17 patients, goserelin alone; cited from earlier work
[3] = cited from earlier work
[4] = pharmacokinetics of CPA in humans, plasma concentration; assay type: in vivo, human; settings: longer period of continual dosing of 50 mg per day
Description: The Androcur® Monograph, Berlex, Canada (1997) reports on the pharmacokinetics of CPA in humans. […] Blood levels of CPA are known to be generally dose dependent.

[5] = male subjects, oral, one 50 mg dose; cited from earlier work
[6] = men; cited from earlier work
[7] = 367 evaluable patients; criteria weight gain and pain relief; cited from earlier work
[8] = orchiectomized patients, 6 months, 150 mg/day CPA (50 mg t.i.d.); cited from earlier work
[9] = castrated adult rats; cited from earlier work

## C[C@]12CC[C@H]3[C@@H](CCC4=CC(=O)CC[C@@H]43)[C@@H]1CC[C@@H]2O [nor-testosterone]
[1]
  androgenic activity: possess androgenic activity

## CC(C)C[C@H](NC(=O)[C@@H](COC(C)(C)C)NC(=O)[C@H](Cc1ccc(O)cc1)NC(=O)[C@H](CO)NC(=O)[C@H](Cc1c[nH]c2ccccc12)NC(=O)[C@H](Cc1cnc[nH]1)NC(=O)[C@@H]1CCC(=O)N1)C(=O)N[C@@H](CCCNC(=N)N)C(=O)N1CCC[C@H]1C(=O)NNC(N)=O [goserelin]
[2]
  patients with transient increase in bone pain: 58.5%

## CC(=O)O[C@]1(C(C)=O)CC[C@H]2[C@@H]3C=C(Cl)C4=CC(=O)[C@@H]5C[C@@H]5[C@]4(C)[C@H]3CC[C@@]21C [CPA, Cyproterone acetate]
[1]
  androgenic activity: possess androgenic activity
[3]; 89 orchiectomized patients, 50 mg/day CPA, 2 to 152 months
  discontinuation due to side effects: in no case
[3]; over 2500 patients, long term CPA use
  cases of hepatocellular carcinoma: Not a single case
[4]
  cumulative plasma level, steady state: ≥ 750 nmol/L
[5]
  mean plasma concentration: about 700 nmol/L
[6]
  threshold value for an antiandrogen effect: 50 mg
[7]
  patients with general improvement in subjective assessment of quality of life: 70%
[8]
  number of patients experiencing hot flashes or outbreaks of sweating: decreased
[9]
  inhibition of complete involution of the ventral prostate: very weak

## C#C[C@]1(O)CC[C@H]2[C@@H]3CCC4=CC(=O)CC[C@]4(C)[C@H]3CC[C@@]21C [ethisterone]
[1]
  androgenic activity: possess androgenic activity

From patent US6613758B1, “Method for treating osteoporosis in castrated prostatic cancer patients” (Barr Laboratories, Inc., priority 1999, dated 2003)
